Source: ChEMBL document CHEMBL3046128, “Sustainable synthesis of flavonoid derivatives, QSAR study and insecticidal activity against the fall armyworm, Spodoptera frugiperda (Lep.: Noctuidae)” (2010)

system: Spodoptera frugiperda; experiment: Insecticidal activity against first-instar larval-stage of Spodoptera frugiperda (fall armyworm) strain corn in compound-pretreated corn leaves assessed as mortality rate at 2000 mg/kg; assay type: functional

In order of rising LT50:
1. O=c1cc(-c2ccccc2)oc2cc(Cl)ccc12 [7-CHLOROFLAVONE]  29.33 h
2. O=c1cc(-c2ccccc2)oc2ccc(Br)cc12 [6-BROMOFLAVONE]  43.86 h
3. O=c1cc(-c2ccccc2)oc2ccccc12 [FLAVONE]  51.19 h
4. O=c1cc(-c2ccccc2)oc2ccc(Cl)cc12 [6-CHLOROFLAVONE]  53.36 h
5. O=c1c2ccccc2oc2ccccc12 [XANTHONE]  53.78 h
6. O=c1ccoc2ccccc12 [CHROMONE]  55.42 h
7. O=c1cc(-c2ccccc2)oc2cc(F)ccc12 [7-FLUOROFLAVONE]  63.76 h
8. O=c1cc(-c2ccccc2)oc2cc(Br)ccc12 [7-BROMOFLAVONE]  89.73 h
9. Cc1ccc2oc(-c3ccccc3)cc(=O)c2c1 [6-METHYLFLAVONE]  93 h
10. Cc1ccc2c(=O)cc(-c3ccccc3)oc2c1 [7-METHYLFLAVONE]  105.46 h
11. O=c1cc(-c2ccccc2)oc2cc(O)ccc12 [7-HYDROXYFLAVONE]  106.94 h
12. COc1ccc2c(=O)cc(-c3ccccc3)oc2c1 [7-METHOXYFLAVONE]  114.38 h

In order of falling log10LT50:
1. COc1ccc2c(=O)cc(-c3ccccc3)oc2c1 [7-METHOXYFLAVONE]  2.058
2. O=c1cc(-c2ccccc2)oc2cc(O)ccc12 [7-HYDROXYFLAVONE]  2.029
3. Cc1ccc2c(=O)cc(-c3ccccc3)oc2c1 [7-METHYLFLAVONE]  2.023
4. Cc1ccc2oc(-c3ccccc3)cc(=O)c2c1 [6-METHYLFLAVONE]  1.968
5. O=c1cc(-c2ccccc2)oc2cc(Br)ccc12 [7-BROMOFLAVONE]  1.953
6. O=c1cc(-c2ccccc2)oc2cc(F)ccc12 [7-FLUOROFLAVONE]  1.805
7. O=c1ccoc2ccccc12 [CHROMONE]  1.744
8. O=c1c2ccccc2oc2ccccc12 [XANTHONE]  1.731
9. O=c1cc(-c2ccccc2)oc2ccc(Cl)cc12 [6-CHLOROFLAVONE]  1.727
10. O=c1cc(-c2ccccc2)oc2ccccc12 [FLAVONE]  1.709
11. O=C1CC(c2ccccc2)Oc2ccccc21 (stereo not given) [FLAVANONE]  1.656
12. O=c1cc(-c2ccccc2)oc2ccc(Br)cc12 [6-BROMOFLAVONE]  1.642
13. O=c1cc(-c2ccccc2)oc2cc(Cl)ccc12 [7-CHLOROFLAVONE]  1.467
